# Test results published in US12065466B2, “Methods and compositions for protein sequencing” (Quantum-Si Incorporated, priority 2020, dated 2024).
# Entries after “also recorded” stand apart in the source; their conditions may differ. Square brackets hold non-standard residues; d marks the D form. Ends that are not written are not given here. Lys(N3) = [N-]=[N+]=NCCCC[C@H](N)C(=O)O
# System: amino acid at a terminal position of a polypeptide
# Assay: not given
# Conditions: Table 2; amino acid identity at a terminal position (phosphotyrosine also internal); inferred from literature and/or demonstrated by the inventors; cited from earlier work
row,Substance,Binding Pref.
1,H. sapiens Src tyrosine kinase SH2 domain: SEQ ID NO: 118,phospho-Y
2,H. sapiens p62 fragment 1-180: SEQ ID NO: 121,"K, R, H,; also recorded: W, F, Y"
3,H. sapiens p62 fragment 1-310: SEQ ID NO: 120,"K, R, H,; also recorded: W, F, Y"
4,H. sapiens p62 fragment 126-180: SEQ ID NO: 122,"K, R, H,; also recorded: W, F, Y"
5,Rattus norvegicus p62 protein: SEQ ID NO: 124,"K, R, H,; also recorded: W, F, Y"

# Biological target: T1, rat aminopeptidase N (Rat APN) (Rattus norvegicus, UniProt P15684)
# T1 sequence (P15684 1-965): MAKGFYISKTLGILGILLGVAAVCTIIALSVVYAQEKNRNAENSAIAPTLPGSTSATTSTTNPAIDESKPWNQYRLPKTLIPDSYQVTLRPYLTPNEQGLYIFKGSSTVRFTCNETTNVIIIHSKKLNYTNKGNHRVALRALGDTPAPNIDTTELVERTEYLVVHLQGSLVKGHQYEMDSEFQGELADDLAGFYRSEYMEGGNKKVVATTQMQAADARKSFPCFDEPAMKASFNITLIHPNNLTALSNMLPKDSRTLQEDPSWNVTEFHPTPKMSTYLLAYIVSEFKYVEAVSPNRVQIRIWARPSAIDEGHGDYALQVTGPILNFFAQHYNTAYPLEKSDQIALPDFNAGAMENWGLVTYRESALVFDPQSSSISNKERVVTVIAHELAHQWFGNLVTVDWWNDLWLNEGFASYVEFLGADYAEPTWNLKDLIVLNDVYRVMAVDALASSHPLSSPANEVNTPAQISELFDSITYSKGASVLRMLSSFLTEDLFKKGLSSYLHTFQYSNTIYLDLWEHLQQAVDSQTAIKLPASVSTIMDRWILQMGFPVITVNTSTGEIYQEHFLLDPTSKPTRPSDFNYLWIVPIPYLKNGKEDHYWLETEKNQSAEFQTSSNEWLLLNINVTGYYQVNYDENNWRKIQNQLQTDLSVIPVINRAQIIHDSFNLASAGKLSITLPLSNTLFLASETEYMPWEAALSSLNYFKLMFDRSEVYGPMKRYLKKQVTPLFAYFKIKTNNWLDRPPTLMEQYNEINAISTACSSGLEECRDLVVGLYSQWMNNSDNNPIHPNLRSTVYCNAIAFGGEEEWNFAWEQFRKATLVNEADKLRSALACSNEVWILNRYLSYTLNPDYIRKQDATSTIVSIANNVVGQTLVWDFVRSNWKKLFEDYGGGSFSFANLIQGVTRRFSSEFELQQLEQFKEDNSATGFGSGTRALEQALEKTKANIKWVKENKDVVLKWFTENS
# Assay: Terminal amino acid cleavage of peptide-linker conjugates by Rat APN (LCMS)
# Type: biochemical
# Conditions: monitored by LCMS
# Method: (§1) The peptide-linker conjugates were evaluated for amino acid cleavage at peptide N-termini by N-terminal aminopeptidases (Table 6, below).
# (§2) The peptide-linker conjugates shown in Table 6 were incubated with either proline iminopeptidase (“PIP”) or rat aminopeptidase N (“Rat APN”), and peptide cleavage was monitored by LCMS. All other cleavage reactions were measured in a similar manner.
row,Substance,Cleaved by Rat APN
1,"2: peptide-linker conjugate: KKMKKM{LYS(N3)} (SEQ ID NO. 224), oligo linker (KKMKKM[Lys(N3)]; also: oligo linker, attachment not given here) [Entry 2]",No
2,"3: peptide-linker conjugate: KKMKKM{LYS(N3)} (SEQ ID NO. 225), oligo-PEG linker (KKMKKM[Lys(N3)]; also: oligo-PEG linker, attachment not given here) [Entry 3]",No
3,"4: peptide-linker conjugate: KKMKKM{LYS(N3)} (SEQ ID NO. 226), PEG4 linker (KKMKKM[Lys(N3)]; also: PEG4 linker, attachment not given here) [Entry 4]",Yes
4,"6: peptide-linker conjugate: FFMFFM{LYS(N3)} (SEQ ID NO. 228), oligo linker (FFMFFM[Lys(N3)]; also: oligo linker, attachment not given here) [Entry 6]",Yes
5,"7: peptide-linker conjugate: AAMAAM{LYS(N3)} (SEQ ID NO. 229), oligo linker (AAMAAM[Lys(N3)]; also: oligo linker, attachment not given here) [Entry 7]",Yes
6,"Entry 5: peptide-linker conjugate: DDMDDM{LYS(N3)} (SEQ ID NO. 227), oligo linker (DDMDDM[Lys(N3)]; also: oligo linker, attachment not given here)",Yes

# System: proline iminopeptidase (PIP)
# Assay: Terminal amino acid cleavage of peptide-linker conjugates by PIP (LCMS)
# Type: biochemical
# Conditions: monitored by LCMS
# Method: as §1, §2
row,Substance,Cleaved by PIP
1,"8: peptide-linker conjugate: FPFPFP{LYS(N3)} (SEQ ID NO. 230), oligo linker (FPFPFP[Lys(N3)]; also: oligo linker, attachment not given here) [Entry 8]",Yes
2,"9: peptide-linker conjugate: DPDPDP{LYS(N3)} (SEQ ID NO. 231), oligo linker (DPDPDP[Lys(N3)]; also: oligo linker, attachment not given here) [Entry 9]",Yes
3,"10: peptide-linker conjugate: KPKPKP{LYS(N3)} (SEQ ID NO. 232), oligo linker (KPKPKP[Lys(N3)]; also: oligo linker, attachment not given here) [Entry 10]",No
4,"11: peptide-linker conjugate: KPKPKP{LYS(N3)} (SEQ ID NO. 233), PEG4 linker (KPKPKP[Lys(N3)]; also: PEG4 linker, attachment not given here) [Entry 11]",Yes
